Laboratory results taken from BindingDB's records for patent US9062048 (Janssen Pharmaceutica, 2015).

Molecular target: C-C chemokine receptor type 2 (Homo sapiens, UniProt P41597)
Experiment: Receptor Binding Assay

Chain of C-C chemokine receptor type 2 (P41597 whole entry): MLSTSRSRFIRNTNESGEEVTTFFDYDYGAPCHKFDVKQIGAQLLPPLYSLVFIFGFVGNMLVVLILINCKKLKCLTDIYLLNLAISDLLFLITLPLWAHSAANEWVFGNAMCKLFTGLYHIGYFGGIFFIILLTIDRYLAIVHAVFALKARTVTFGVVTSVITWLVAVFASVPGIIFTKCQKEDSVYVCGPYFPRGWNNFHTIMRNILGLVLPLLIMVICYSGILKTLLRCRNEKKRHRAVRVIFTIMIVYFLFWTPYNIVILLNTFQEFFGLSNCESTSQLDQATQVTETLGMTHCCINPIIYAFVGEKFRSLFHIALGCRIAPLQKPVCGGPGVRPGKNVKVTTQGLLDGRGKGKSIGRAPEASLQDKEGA

C[S+]([O-])CC(O)[C@H]1CC[C@@H](N2CC(NC(=O)CNc3ncnc4ccc(C(F)(F)F)cc34)C2)CC1 (some centres not stated) [US9062048, 21]
IC50: 172 nM

CCC(NC(=O)NC)[C@H]1CC[C@@H](N2CC(NC(=O)CNc3ncnc4ccc(C(F)(F)F)cc34)C2)CC1 (some centres not stated) [US9062048, 142]
IC50: 1230 nM
